A word on the pIC50: it is the IC50 on a negative log10 scale, so that one unit is a factor of ten. A low value points to a high IC50.

This is an account of results in ChEMBL document CHEMBL3994563 (Medchemcomm, 2016).

For test [1], the system named is A-375. As to the kind of experiment: Antiproliferative activity against human A375 cells after 48 hrs by MTT assay. The settings on record: A-375, 48 h. It is filed as functional, cell-based. A general note: Formazan colour is commonly taken as a measure of viable cells.
The subject of test [2] is MIA PaCa-2. Nature of the test: Antiproliferative activity against human MIAPaCa2 cells after 48 hrs by MTT assay. It is filed as functional, cell-based. The settings on record: MIA PaCa-2, 48 h.
The test system of the next test is Caco-2. As to the kind of experiment: Antiproliferative activity against human Caco2 cells after 48 hrs by MTT assay. In kind it is functional, cell-based. The settings on record: Caco-2, 48 h.
In a further test the test system is A549. As to the kind of experiment: Antiproliferative activity against human A549 cells after 48 hrs by MTT assay. The note with it: A549, 48 h. In kind it is functional, cell-based.
For the next test, the system named is PC-3. As to the kind of experiment: Antiproliferative activity against human PC3 cells after 48 hrs by MTT assay. The note with it: PC-3, 48 h. It is filed as functional, cell-based.
The nature of test [3]: Antiproliferative activity against human HPDEC after 48 hrs by MTT assay. In kind it is cell-based.
Test [4] concerns A-375. Nature of the test: Antiproliferative activity against human A375 cells assessed as reduction in cell viability at IC50 after 24 hrs by calcein AM staining based confocal microscopy. It is filed as functional.
The subject of test [5] is MIA PaCa-2. As to the kind of experiment: Antiproliferative activity against human MIAPaCa2 cells assessed as reduction in cell viability at IC50 after 24 hrs by calcein AM staining based confocal microscopy. It is filed as functional.
In test [6] the test system is A-375. Nature of the test: Antiproliferative activity against human A375 cells assessed as reduction in colony formation measured after 10 to 14 days by crystal violet staining based microscopic method. In kind it is functional, cell-based.
The test system of test [7] is MIA PaCa-2. As to the kind of experiment: Antiproliferative activity against human MIAPaCa2 cells assessed as reduction in colony formation measured after 10 to 14 days by crystal violet staining based microscopic method. It is filed as functional, cell-based.
Test [8] deals with MIA PaCa-2. As to the kind of experiment: Cell cycle arrest in human MIAPaCa2 cells assessed as accumulation at G2/M phase at IC50 after 48 hrs by propidium iodide staining based flow cytometry. In kind it is functional. On the technique in general: In flow cytometry, cells or beads pass a laser one at a time.
For test [9], the system named is A-375. Nature of the test: Cell cycle arrest in human A375 cells assessed as accumulation at G2/M phase at IC50 after 48 hrs by propidium iodide staining based flow cytometry. It is filed as functional.
The test system of test [10] is A-375. Nature of the test: Cell cycle arrest in human A375 cells assessed as decrease in G1 population at IC50 after 48 hrs by propidium iodide staining based flow cytometry. It is filed as functional.
Test [11] has as its system MIA PaCa-2. Nature of the test: Cell cycle arrest in human MIAPaCa2 cells assessed as decrease in G1 population at IC50 after 48 hrs by propidium iodide staining based flow cytometry. It is filed as functional.
Test [12] relates to A-375. Nature of the test: Cell cycle arrest in human A375 cells assessed as accumulation at sub-G0/G1 phase at IC50 after 48 hrs by propidium iodide staining based flow cytometry. It is filed as functional.
Test [13] concerns MIA PaCa-2. Nature of the test: Cell cycle arrest in human MIAPaCa2 cells assessed as accumulation at sub-G0/G1 phase at IC50 after 48 hrs by propidium iodide staining based flow cytometry. In kind it is functional.

Each structure is given as a SMILES string. pIC50: −log10 of the molar value. Calls of active or inactive are those of the source. The calls are words filed in the database; no cut-off is given here.

For `COc1cc(C(=O)c2c(C#Cc3ccccc3)sc(C)c2C)cc(OC)c1OC`, the pIC50 in the test with A-375 [1] was 5.93; in the test on MIA PaCa-2 [2] it was 5.36; with Caco-2, 5.13; in the test with A549, 5.19; with PC-3 it was 5.19; in test [3], 4.44.

For `O=C(c1ccccc1)c1c(C#Cc2ccccc2)sc2c1CCCC2`, the pIC50 in the test on A-375 [1] is 5.33; with MIA PaCa-2 [2], 5.07; in the test on Caco-2 it was 4.83; with A549 it was 4.70; in the test on PC-3, 4.64; in [3], 4.72.

For `COc1cc(C(=O)c2c(C#Cc3ccccc3)sc3c2CCCC3)cc(OC)c1OC`, the negative-log IC50 (pIC50) with A-375 [1] is 5.41; in the test on MIA PaCa-2 [2] it was 5.29; in the test with Caco-2, 5.08; in the test on A549 it was 4.89; with PC-3, 4.81; in test [3], under 4.30.

Regarding `COc1cc(C(=O)c2c(C#Cc3ccc(C)cc3)sc3c2CCCC3)cc(OC)c1OC`, the pIC50 is 4.65 in the test on A-375 [1]; 4.67 with MIA PaCa-2 [2]; 4.55 in the test on Caco-2; 4.72 in the test on A549; 4.43 in the test on PC-3.

As for `O=C(c1ccc([N+](=O)[O-])cc1)c1c(-c2ccccc2)sc2c1CCCC2`, the pIC50 in the test on A-375 [1] is 4.69; in the test on MIA PaCa-2 [2], 4.88; in the test on Caco-2 it was 4.55; in the test with A549, 4.62; in the test with PC-3 it was 4.84.

As to `O=C(c1ccc([N+](=O)[O-])cc1)c1c(C#Cc2ccccc2)sc2c1CCCC2`, the pIC50 in the test on A-375 [1] was 6.09; with MIA PaCa-2 [2] it was 5.52; in the test with Caco-2, 5.34; with A549, 5.55; in the test with PC-3, 4.91; in [3], under 4.30. Also, the outcome in the test on A-375 [4], in the test with MIA PaCa-2 [5], in the test on A-375 [6], in the test with MIA PaCa-2 [7], with MIA PaCa-2 [8] and with A-375 [9] was Active. The outcome in the test on A-375 [10], in the test with MIA PaCa-2 [11], with A-375 [12] and in the test on MIA PaCa-2 [13] was Active.

For `Cc1ccc(C(=O)c2c(-c3ccccc3)sc3c2CCCC3)cc1`, the pIC50 was 4.57 with A-375 [1]; 4.44 in the test on MIA PaCa-2 [2]; 4.32 with Caco-2; 4.49 in the test on A549; 4.43 in the test with PC-3.

`Cc1ccc(C#Cc2sc(C)c(C)c2C(=O)c2ccc([N+](=O)[O-])cc2)cc1`: the pIC50 is 4.58 in the test on A-375 [1]; 4.10 in the test with MIA PaCa-2 [2]; 4.50 with Caco-2; under 4.00 in the test with A549; 4.39 in the test with PC-3.

As to `O=C(c1ccc([N+](=O)[O-])cc1)c1c(-c2ccccc2)sc2c1CCCCC2`, the pIC50 is 5.97 in the test with A-375 [1]; 5.27 in the test with MIA PaCa-2 [2]; 5.21 in the test with Caco-2; 5.27 in the test with A549; 4.40 in the test with PC-3; under 4.30 in test [3]. The outcome in the test with A-375 [4], in the test on MIA PaCa-2 [5], in the test on A-375 [6], with MIA PaCa-2 [7], in the test with MIA PaCa-2 [8] and with A-375 [9] was Active. Besides, the result in the test on A-375 [10], in the test on MIA PaCa-2 [11], in the test with A-375 [12] and in the test on MIA PaCa-2 [13] was Active.

Turning to `Cc1ccc(C#Cc2sc3c(c2C(=O)c2ccccc2)CCCC3)cc1`, the pIC50 in the test with A-375 [1], in the test with MIA PaCa-2 [2], in the test on Caco-2, with A549 and in the test with PC-3 was under 4.00 throughout.

As to `Cc1ccc(C#Cc2sc(C)c(C)c2C(=O)c2ccc(C)cc2)cc1`, the pIC50 in the test on A-375 [1] was under 4.00; in the test with MIA PaCa-2 [2] it was under 4.00; in the test with Caco-2, under 4.00; with A549, 4.34; with PC-3, under 4.00.

For `Cc1sc(C#Cc2ccccc2)c(C(=O)c2ccc([N+](=O)[O-])cc2)c1C`, the pIC50 in the test with A-375 [1] was 4.67; in the test on MIA PaCa-2 [2], 4.66; in the test on Caco-2 it was 4.60; with A549 it was 4.72; with PC-3, 4.48.

On to `COc1ccc(C(=O)c2c(C#Cc3ccccc3)sc(C)c2C)cc1`, for which the pIC50 with A-375 [1] is 5.03; in the test with MIA PaCa-2 [2] it was 4.53; in the test on Caco-2, 4.74; in the test on A549, 4.87; in the test with PC-3, 4.67.

Regarding `Cc1sc(-c2ccccc2)c(C(=O)c2ccc([N+](=O)[O-])cc2)c1C`, the pIC50 is under 4.00 with A-375 [1]; 4.62 in the test on MIA PaCa-2 [2]; 4.19 with Caco-2; 4.51 with A549; under 4.00 in the test with PC-3.

As to `Cc1ccc(C#Cc2sc3c(c2C(=O)c2ccc([N+](=O)[O-])cc2)CCCC3)cc1`, the pIC50 was 4.88 in the test on A-375 [1]; 4.79 with MIA PaCa-2 [2]; 4.47 in the test on Caco-2; 4.52 in the test with A549; 4.67 with PC-3.

Take `Cc1ccc(C#Cc2sc(C)c(C)c2C(=O)c2ccccc2)cc1`: the pIC50 was under 4.00 in the test with A-375 [1]; 4.16 with MIA PaCa-2 [2]; under 4.00 in the test with Caco-2; under 4.00 in the test with A549; 4.29 with PC-3.

Regarding `Cc1ccc(C(=O)c2c(C#Cc3ccccc3)sc(C)c2C)cc1`, the pIC50 was 4.36 in the test on A-375 [1]; under 4.00 in the test on MIA PaCa-2 [2]; under 4.00 in the test on Caco-2; 4.40 with A549; 4.60 with PC-3.

Turning to `COc1ccc(C(=O)c2c(C#Cc3ccccc3)sc3c2CCCC3)cc1`, the pIC50 in the test with A-375 [1] was 5.72; in the test with MIA PaCa-2 [2] it was 4.45; with Caco-2 it was 4.77; in the test on A549 it was 5.09; in the test with PC-3 it was 4.84; in [3], 4.45.

As for `CC(=O)O[C@H]1C(=O)[C@@]2(C)[C@H]([C@H](OC(=O)c3ccccc3)[C@]3(O)C[C@H](OC(=O)[C@H](O)[C@@H](NC(=O)c4ccccc4)c4ccccc4)C(C)=C1C3(C)C)[C@]1(OC(C)=O)CO[C@@H]1C[C@@H]2O` [PACLITAXEL], the pIC50 in the test on A-375 [1] is 6.17; in the test on MIA PaCa-2 [2] it was 5.60; in the test with Caco-2, 5.55; with A549, 6.40; with PC-3, 5.72.

With `Cc1ccc(C(=O)c2c(-c3ccccc3)sc(C)c2C)cc1`, the pIC50 in the test with A-375 [1] is 4.29; in the test on MIA PaCa-2 [2], under 4.00; in the test with Caco-2, under 4.00; in the test on A549 it was under 4.00; with PC-3, 4.58.

As for `O=C(c1ccccc1)c1c(-c2ccccc2)sc2c1CCCCC2`, the pIC50 is 5.11 in the test with A-375 [1]; 4.92 in the test on MIA PaCa-2 [2]; 4.74 in the test with Caco-2; 4.80 in the test with A549; 4.66 in the test on PC-3; 4.84 in test [3].

For the molecule `Cc1ccc(C(=O)c2c(-c3ccccc3)sc3c2CCCCC3)cc1`, the pIC50 in the test with A-375 [1] was 5.43; with MIA PaCa-2 [2] it was 4.61; with Caco-2 it was 4.80; in the test on A549, 5.20; with PC-3, 4.63; in test [3] it was 4.59.

As for `Cc1sc(-c2ccccc2)c(C(=O)c2ccccc2)c1C`, the pIC50 with A-375 [1] was 4.51; in the test with MIA PaCa-2 [2], under 4.00; in the test on Caco-2, 4.42; with A549, 4.66; with PC-3, 4.40.

On to `COc1ccc(C(=O)c2c(-c3ccccc3)sc3c2CCCC3)cc1`, for which the pIC50 was 5.27 with A-375 [1]; 5.05 in the test on MIA PaCa-2 [2]; 4.73 in the test on Caco-2; 5.03 with A549; 4.63 with PC-3; 4.67 in test [3].

In the case of `Cc1ccc(C#Cc2sc3c(c2C(=O)c2ccc(C)cc2)CCCC3)cc1`, the pIC50 in the test on A-375 [1] is 4.51; in the test on MIA PaCa-2 [2] it was 4.38; in the test on Caco-2, 4.50; in the test with A549, 4.56; in the test with PC-3 it was 4.32.

On to `Cc1ccc(C(=O)c2c(C#Cc3ccccc3)sc3c2CCCC3)cc1`, for which the pIC50 in the test with A-375 [1] is 4.99; in the test with MIA PaCa-2 [2], 4.76; in the test on Caco-2 it was 4.98; in the test on A549, 4.95; in the test with PC-3 it was 4.69.

Regarding `O=C(c1ccccc1)c1c(-c2ccccc2)sc2c1CCCC2`, the pIC50 in the test with A-375 [1] was 4.79; in the test on MIA PaCa-2 [2] it was 4.74; with Caco-2, 4.69; in the test with A549, 4.85; with PC-3, 4.62.

With `Cc1sc(C#Cc2ccccc2)c(C(=O)c2ccccc2)c1C`, the pIC50 in the test with A-375 [1] was 4.55; in the test with MIA PaCa-2 [2], 4.51; in the test on Caco-2, 4.47; in the test on A549 it was 4.62; with PC-3, 4.50.
